System: NanoLuc-HaloTag
Assay: Direct and two-step labeling with azide-DBCO pair, fluorescence imaging on SDS/PAGE gel
Format: biochemical
Settings: 50 uM compound 1 hour, then 100 uM DBCO-FAM 4 hours
Description: In Example 26, a dye-appended suicide substrate is shown by fluorescence imaging to label NanoLuc. In this example, a suicide substrate with an appended azide is shown to label a NanoLuc-HaloTag protein in a two-step procedure in which the second step is copper-free click chemistry with a DBCO appended FAM dye. […] Structures of the compounds used in this example are illustrated in FIG. 10A.
0.5 uM NanoLuc-HaloTag in 100 mM Tris pH 8.0 was incubated for 1 hour with 50 uM of: Tube 1—JRW-1505; Tube 2—FAM-HaloTag ligand; Tube 3—JRW-0926; Tube 4—JRW-0975; Tube 5—JRW-1022; and Tube 6—SE-azide. In the second step, 100 uM DBCO-FAM was incubated for 4 hours in Tubes 1, 4, 5, and 6, followed by SDS/PAGE gel for all samples (FIG. 10B). The fluorescence (473ex) (Cy2 filter set) of bands corresponding to the size of NanoLuc-HaloTag was read and quantified.
In a second experiment, 1.5 uM NanoLuc-HaloTag in 100 mM Tris (or DPBS buffer) pH 8.0 was incubated with 50 uM of JRW-0975, FAM-HaloTag ligand, JRW-0926, JRW-1022, or SE-azide for 1 hour. In the second step, 100 uM DBCO-FAM was incubated for 4 hours with tubes 3, 4, and 5, followed by SDS/PAGE gel (FIG. 11A). The fluorescence (473ex) (Cy2 filter set) of bands corresponding to the size of NanoLuc-HaloTag was read and quantified (FIG. 11B).

[N-]=[N+]=NCCOCCOCCC(=O)NCCOCCOCCCCCCCl [JRW-1505, 3-(2-(2-azidoethoxy)ethoxy)-N-(2-(2-((6-chlorohexyl)oxy)ethoxy)ethyl)propanamide]
Two-step labeling with DBCO-FAM: two-step labeling occurs

Reference: US11655247B2, “Nanoluc suicide substrates” (PROMEGA CORPORATION, priority 2018, dated 2023)
